Reference: patent US7052672B2, “Stabilized radiopharmaceutical compositions” (GE Healthcare Limited, priority 2000, dated 2006)

Assays:
[1] = paraben with M=H; at 25° C.; cited from earlier work
[2] = 13C NMR investigation of the reaction between ascorbic acid and methylparaben; type: physicochemical
Method: Small portions of powdered sodium hydroxide were added with agitation to adjust the pH. At 3 defined pH's (pH 7.5, 8.8 and 9.6), a representative aliquot (0.5 cm^3) was transferred to an NMR tube. The 3 sampled reaction mixtures were monitored daily for one week by ^13C NMR When not being monitored, the mixtures were stored at room temperature protected from light. At the end of the monitoring period a small quantity of methanol was added to the solution to confirm that, if hydrolysis had occurred, the ^13C NMR signal for any methanol produced by transesterification would have been well separated from that for the initial methyl ester resonance.
The ^13C NMR spectra were obtained using a JEOL EX270 NMR spectrometer with a broad-band tuneable probe operating at a frequency of 67.94 MHz. The data for each spectrum was acquired over a period of about 30 min.
An aliquot (0.5 cm^3) of the colourless solution was removed and monitored by ^13C NMR spectroscopy. As part of the monitoring process the sample was placed in a Bruker AM250 NMR spectrometer after 29 hours and its ^13C NMR spectrum accumulated over a period of 16 hours. […] A small quantity of methanol was then added to the sample as a reference peak.

SMILES	solubility in water [1]	additional components from interaction of ascorbic acid and methylparaben (13C NMR) ([2]; Experiment B, pH 9.5, spectrum started after 29 hours, accumulated over 16 hours)	formation of methanol from hydrolysis of methylparaben (13C NMR) ([2]; Experiment B, pH 9.5, with ascorbic acid, after 29 hours, accumulated 16 hours)	reaction with ascorbic acid or hydrolysis (13C NMR) ([2]; even at pH approximately 9.6 after 7 days)
CCOC(=O)c1ccc(O)cc1 [ethylparaben, Ethylparaben]	0.070% w/w at 25° C.,	–	–	–
COC(=O)c1ccc(O)cc1 [methylparaben, Methylparaben]	–	no significant quantities of any additional components had been produced	no evidence for the formation of any methanol	no evidence was found from ^13C NMR studies for any significant reaction between ascorbic acid and methylparaben, or any significant hydrolysis
